Two molecules from patent US20200138921A1, “METHODS OF PREVENTING AND TREATING DISEASES CHARACTERIZED BY SYNAPTIC DYSFUNCTION AND NEURODEGENERATION INCLUDING ALZHEIMER'S DISEASE” (The Trustees of Columbia University in the City of New York, priority 2017, published 2020) can be followed below.

In series [1] the test system is Ube3A. Briefly: Immunoprecipitation of HA-Ube3A and phospho-tyrosine immunoblot in B35 cells. Particulars: B35 cells overexpressing HA-tagged Ube3A, as early as 1 hour. It is filed as cell-based, rat. As to the method: Hippocampal neuron cultures from both male and female rat embryos (E17-18) were prepared following a slightly modified version of the method of Brewer et al. 1996. Hippocampal neurons were kept in culture at 37° C. with 5% CO2 in Neurobasal medium (ThermoFisher) with B27 (ThermoFisher) supplement and Glutamax (ThermoFisher) and plated at a density of 2.5×10^5 cell/ml on dishes coated with poly-D-lysine (ThermoFisher). For the experiments, neurons were used after 14-21 days in vitro (DIV). Rat neuroblastoma B35 cells were cultured and maintained in DMEM (ThermoFisher) supplemented with 10% fetal bovine serum (FBS; Invitrogen) and Glutamax (ThermoFisher).
Cells were collected and homogenized with IP lysis buffer (ThermoFisher) supplemented with Halt protease and phosphatase inhibitor (ThermoFisher). Cell extracts were incubated overnight at 4° C. with 1.0 μg HA antibody (Cell Signaling) or mouse IgG (Cell Signaling) as a negative control Immunocomplexes were incubated with magnetic beads covalently coated with protein G (Invitrogen) on a rotator for 2 hours, at 4° C. The beads were then pelleted with a magnet and washed 3 times with 1× cell lysis buffer (Cell Signaling) supplemented with complete mini protease inhibitor mixture (Roche). The immunocomplexes were resuspended in cell lysis buffer, LDS-sample buffer (Invitrogen), […] dithiothreitol (DTT), and analyzed by Western blotting. […]
On the technique in general: In western blotting, separated proteins are transferred to a membrane and probed.

The test system of series [2] is primary hippocampal neurons. It is filed as cell-based, rat. The settings on record: neurons 21 DIV, oAβ for 24 hours (data not shown).
The next series deals with Lfc. Briefly: Levels or activities of Lfc in hippocampal neurons. It is filed as cell-based, rat. Particulars: hippocampal neurons treated with oAβ (results not shown).
The test system of series [3] is Ube3A. Kind of series: Ube3A protein in hippocampus of J20 AD mice. It is filed as in vivo. Particulars: single bilateral TOP injection 275 μg at 9-10 months, measured at 11-12 months. The source says: The J20 transgenic mouse line also used in the studies expresses a mutated human APP (hAPP: K670N/M671L and V717F) under the control of the platelet-derived growth factor promoter (Mucke et al. 2000). These mice have deficits in learning and memory, inhibition of long-term potentiation, loss of dendritic spines, profuse amyloid plaques, and increased phosphorylation of the tau protein. These mice also have increased RhoA-GTP activity and progressive decrease in spinal density when treated with oligomeric Aβ. See Pozueta et al. 2013.
(§1) Whole frozen mouse hippocampi, human brain specimens, and cultured cells were homogenized in RIPA buffer (ThermoFisher) supplemented with protease and phosphatase inhibitor cocktail (ThermoFisher), using a Teflon dounce homogenizer and centrifuged at 14,000 rpm for 10 minutes at 4° C. Supernatants were collected, normalized by BCA assay (ThermoFisher), and prepared for loading using sample buffer (SB) 4× (ThermoFisher) and dithiothreitol (DTT) 10× (ThermoFisher).
Controls were wild-type mice and J20 mice injected with PBS.

The subject of series [4] is wild-type mice. Kind of series: Morris water maze in wild-type mice. The series is classed as in vivo. The settings on record: single TOP injection 275 μg, vs PBS-injected mice. The method, then: Mice were trained to find a hidden platform in a circular pool of 1.10 m diameter located in a room with extra maze cues. The location of the platform ([…] diameter) was constant for each mouse during training and was placed 1 cm beneath the surface of the water, maintained at 24° C.±2° C. throughout the duration of the test. At the end of test, the mice were dried off and placed in a clean cage with extra paper towels to prevent hypothermia Animals were then monitored inside their cage until eating, drinking, and ambulating normally Mice were trained in sessions consisting of four trials a day for five consecutive days. Mice started from different quadrants on a random basis during each trial and all four quadrants were used on any given day. The maximum swimming time allowed on each trial was 60 seconds.
Probe trials (1 session: 1 trials/session) were conducted 24 hours after the last training trial. During the probe test the platform was removed and mice were free to swim in the pool for 60 seconds. Time spent in each quadrant was measured. Trial and probe test sessions were recorded and analyzed with a video tracking system (Noldus). After the probe, mice were tested in the visible test for two consecutive days, 2 sessions/day with 3 trials/session to assess whether the mice were able to locate a visible platform (its location varied between the three trials of the same session). […]

The subject of series [5] is wild-type mice. Briefly: Dendritic spine density in hippocampus of wild-type mice. The settings on record: single TOP injection 275 μg. It is filed as in vivo. The method, then:
The protocol for diolistic labeling of neurons was adapted from Gan et al. 2000 and Gan et al. 2009. Briefly, 100 mg of tungsten particles (1.1 μm diameter; Bio-Rad) were thoroughly precipitated with 5.0 mg of lipophilic dye (DiI; ThermoFisher) and dissolved in 100 μl of methylene chloride. Dye-coated particles were shot 2-3 times into the cells using the Helios gene gun system (Bio-Rad) and left in 0.1 M PBS overnight to allow dye diffusion along neuronal processes. Cells were post-fixed with 4% paraformaldehyde (Pierce) for 1 hour to preserve staining, then mounted onto glass slides using Gel Mount (Biomeda) and stored at 4° C. in the dark.
Labeled neurons were imaged using the Laser Scanning Microscope (LSM) 510 Meta confocal microscope (Zeiss), equipped with 40×1.3 NA and 100×1.4 NA oil-immersion objectives. The NIH Image software program ImageJ was used the quantify diolistic-labeled cultured neurons. An average of 12 compressed images (20 μm thick) consisting of pyramidal neurons were quantified for each treatment. Spines were counted with NeuronStudio software in a blinded manner and spine density was represented in number of spine per μm dendritic length. Statistical analysis was performed using the statistics package GraphPad Prism.
(§2) Controls were wild type mice injected with PBS.

The next series relates to NMDAR1. Briefly: Western blot of NMDAR1 in hippocampal neurons. The series is classed as cell-based, rat. The settings on record: neurons pretreated with 300 nM TOP, oAβ for 24 hours. As to the method:
as §1
To further test whether increasing Ube3A could rescue the effects of oAβ, cultured primary hippocampal neurons (14 DIV) were pretreated with 300 nM of TOP or control PBS. The neurons were then treated with oAβ for 24 hours, and whole cell lysates prepared for Western blot analysis, or fixed for microscopy.
Cells were also assessed for localization of PSD95 and NMDAR1, markers of postsynaptic terminals. Cells treated with TOP had increased levels of PSD95 and NMDAR1 (FIGS. 11B and 11C).

Series [6] concerns Ube3A. Kind of series: Ube3A protein in hippocampus of wild-type mice after a single TOP injection. Particulars: single bilateral hippocampal injection of TOP 275 μg. The series is classed as in vivo. As to the method: as §1, §2

As to “oAβ: synthetic soluble oligomeric Aβ1-42”, the “phospho-tyrosinated Ube3A (pTyr-Ube3A)” value in the series with Ube3A [1] is “significant increase”. Moreover, the cell death result in series [2] is “No cell death”. Further, the “levels or activities of Lfc” value with Lfc is on record as “no observation of any differences”.
For the molecule `CC[C@@]1(O)C(=O)OCc2c1cc1n(c2=O)Cc2cc3c(CN(C)C)c(O)ccc3nc2-1` [TOP, topotecan], in the series with Ube3A [3], the “levels of Ube3A in the hippocampus” value is recorded as “increased”. The “memory (Morris Water Maze)” value in the series on wild-type mice [4] is reported as “significant enhancement”. Further, the dendritic spine density entry in the series on wild-type mice [5] is “significant increase”. Besides, the “levels of NMDAR1” value with NMDAR1 is given as “increased”. The “persistence of increased Ube3A expression after the single injection” value in the series with Ube3A [6] is on record as “up to 5 months”. Further, the “Ube3A expression in the hippocampus” value in the series on Ube3A [6] (after 1 month) is listed as “sustained increase”.
